{"source": "patent US20100210682A1", "about": "“Repeated Dosing of TRPV1 Antagonists” (ABBOTT LABORATORIES, priority 2009, published 2010)", "key": {"[1]": {"system": "inflammatory thermal hyperalgesia induced by intraplantar administration of CFA", "test": "Inflammatory pain model in rats (CFA, thermal hyperalgesia)", "assay_type": "in vivo", "settings": "po; rat, p.o., acute dosing; read-out: ED50, reversal of inflammatory thermal hyperalgesia induced by CFA", "description": "The response to acute thermal stimulation was determined using a commercially available paw thermal stimulator (UARDG, University of California, San Diego, Calif.). Rats were placed individually in Plexiglass cubicles mounted on a glass surface maintained at 30° C., and allowed a 30 min habituation period. A thermal stimulus, in the form of radiant heat emitted from a focused projection bulb, was then applied to the plantar surface of each hind paw. In each test session, each rat was tested in three sequential trials at approximately 5 min intervals. Paw withdrawal latencies (PWLs) were calculated as the mean of the two shortest latencies. An assay cut-off was set at 20.5 s. Unilateral inflammation was induced by injecting 150 μL of a 50% solution of complete Freund's adjuvant (CFA) (Sigma, St. Louis, Mo.) in physiological saline into the plantar surface of the right hind paw of the rat. The hyperalgesia to thermal stimulation was determined 2 days following CFA injection using the same apparatus as described above for the noxious acute thermal assay. Compound A was dissolved in 100% polyethylene glycol (PEG 400) for oral administration in a 2 mL/kg injection volume. Compounds B, C, and D were dissolved in 10% ethanol, 20% Tween 80 and 70% polyethylene glycol-400 for oral administration in a 2 mL/kg injection volume. […]"}, "[2]": {"system": "MIA-induced osteoarthritic rats", "test": "Osteoarthritic pain model in rats (MIA), hind limb grip force", "assay_type": "in vivo, rat", "settings": "for ED50: po, p.o., acute dosing", "description": "Unilateral knee joint osteoarthritis was induced in the rats by a single intraarticular (i.a.) injection of sodium monoiodoacetate (MIA) (Sigma, St. Louis, Mo.) (3 mg in 0.05 mL sterile isotonic saline) into the joint cavity using a 26 G needle under light (2-4%) halothane (Halocarbon Laboratories, River Edge, N.J.) anesthesia [Bove S E, Calcaterra S L, Brooker R M, Huber C M, Guzman R E, Juneau P L, et al. Weight bearing as a measure of disease progression and efficacy of anti-inflammatory compounds in a model of monosodium iodoacetate-induced osteoarthritis. Osteoarthritis Cartilage 2003; 11:821-30]. Following injection, the animals were allowed to recover from the effects of anesthesia (usually 5-10 min) before returning them to their home cages.\nMIA-induced nociception can be assessed by measuring differences in weight bearing (WBD) or decrease in grip force (GF) several days to weeks following MIA injection [Bove S E, Calcaterra S L, Brooker R M, Huber C M, Guzman R E, Juneau P L, et al. Weight bearing as a measure of disease progression and efficacy of anti-inflammatory compounds in a model of monosodium iodoacetate-induced osteoarthritis. Osteoarthritis Cartilage 2003; 11:821-30; Fernihough J, Gentry C, Malcangio M, Fox A, Rediske J, Pellas T, et al. Pain related behaviour in two models of osteoarthritis in the rat knee. Pain 2004; 112:83-93].\nIn addition to weight-bearing differences, grip strength was also assessed in osteoarthritic rats approximately 21 days after MIA injection. Measurements of peak hind limb grip force were conducted by recording the maximum compressive force exerted on the hind limb strain gauge setup, in a commercially available grip force measurement system (Columbus Instruments, Columbus, Ohio). During testing, each rat was gently restrained by grasping around its rib cage and then allowed to grasp the wire mesh frame (10-12 cm^2) attached to the strain gauge. The experimenter then moved the animal in a rostral-to-caudal direction until the grip was broken. Each rat was sequentially tested twice at an approximately 2 min interval to obtain a raw mean grip force […]. These raw mean grip force data were in turn converted to a maximum hind limb compressive force (CFmax) (gram force)/kg body weight for each animal. A group of age-matched naïve animals was added to each experiment and the data obtained from the different dose groups for the compound being tested were compared to the naïve group.\nCompound A was dissolved in 100% polyethylene glycol (PEG 400) for oral administration in a 2 mL/kg injection volume. Compounds B, C, and D were dissolved in 10% ethanol, 20% Tween 80 and 70% polyethylene glycol-400 for oral administration in a 2 mL/kg injection volume. All compounds were dosed orally (p.o.) 60 minutes before behavioral testing.\nIn the osteoarthritic pain model, animals were dosed twice-daily for 12 days using a dose that was non-efficacious following a single administration (e.g. 3 μmol/kg p.o. for Compound A). The animals were tested 1 hour after acute dosing (p.o.) and on day 12, 1 hour after oral dosing with either vehicle or the test compound.\nThe analgesic responses were shown as % effect relative to the healthy, untreated rats (naïve group)."}}, "note": "Read-outs that look alike come from different tables or passages of the source.", "data": [{"smiles": "CC(C)(C)c1ccc2c(c1)CC[C@H]2NC(=O)Nc1cccc2[nH]ncc12", "note": "[Compound A, N-[(1R)-5-tert-butyl-2,3-dihydro-1H-inden-1-yl]-N′-1H-indazol-4-ylurea]", "values": [{"measurement": "ED50", "setting": "[1]", "value": 10, "unit": "µmol/kg"}, {"measurement": "ED50", "setting": "[2]; Rattus norvegicus, grip force, MIA-induced osteoarthritic rats, read-out: Acute ED50 (μmol/kg; 95% Cl)", "value": 8, "unit": "µmol/kg"}, {"measurement": "% Efficacy at Reduced Dose, Chronic (BID, 12 days)", "setting": "[2]; grip force, 3 μmol/kg p.o. BID 12 days, relative to naïve group", "value": 62, "unit": "%"}, {"measurement": "% Efficacy at Reduced Dose, Acute", "setting": "[2]; grip force, 3 μmol/kg p.o., 1 hour after acute dosing, relative to naïve group", "value": 20, "unit": "%"}, {"measurement": "analgesic effects following repeated dosing vs acute dosing", "setting": "[2]; grip force, BID 12 days, reduced dose", "value": "significantly increased"}, {"measurement": "ED50", "setting": "[2]; 480 h, rat, 20 days following MIA injection, read-out: ED50, reversal of decrease in grip force", "value": 10, "unit": "µmol/kg"}]}]}
